From publication PMC6099663, “Structure–Activity Relationship of the Tyrosinase Inhibitors Kuwanon G, Mulberrofuran G, and Albanol B from Morus Species: A Kinetics and Molecular Docking Study” (Molecules : A Journal of Synthetic Chemistry and Natural …, 2018)
Where two headings read alike, the source gives them in different places. One block for each compound: values may come before it.

Columns and labels:
mushroom tyrosinase [1] = biological target: T1, mushroom tyrosinase (Agaricus bisporus, UniProt C7FF04); assay: Mushroom tyrosinase inhibitory assay, L-tyrosine oxidation (monophenolase activity); assay type: biochemical; design: purchased Sigma-Aldrich Co. (St. Louis, MO, USA)
T1 sequence (C7FF04 2-392): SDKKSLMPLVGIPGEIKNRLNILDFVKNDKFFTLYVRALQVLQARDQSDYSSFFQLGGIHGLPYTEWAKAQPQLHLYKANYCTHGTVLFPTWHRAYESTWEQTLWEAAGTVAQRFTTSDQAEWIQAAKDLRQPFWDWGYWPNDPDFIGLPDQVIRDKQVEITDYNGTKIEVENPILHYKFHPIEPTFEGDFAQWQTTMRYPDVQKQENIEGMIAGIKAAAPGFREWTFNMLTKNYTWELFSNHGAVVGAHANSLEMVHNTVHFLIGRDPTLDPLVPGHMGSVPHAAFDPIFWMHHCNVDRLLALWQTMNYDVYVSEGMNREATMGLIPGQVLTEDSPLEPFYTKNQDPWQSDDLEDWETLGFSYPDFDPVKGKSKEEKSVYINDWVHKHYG
Protocol: (§1) Briefly, 10 µL of a specified concentration of each sample solution (1–500 µg/mL) in 10% dimethyl sulfoxide and 20 µL of mushroom tyrosinase (1000 Units/mL) in a 50 mM phosphate buffer (pH 6.5) were added to 170 µL of an assay mixture in a 96-well microplate. […] The reaction mixtures were incubated at 25 °C for 15 s. The absorbance of the mixture at 490 nm was measured using a microplate reader. […] One unit (U) of enzymatic activity referred to the amount of an enzyme capable of converting 1 µM of the L-tyrosine/L-DOPA reaction mixture within 1 min at 280 nm under the specific conditions (25 °C, optimum conditions).

mushroom tyrosinase [2] = biological target: mushroom tyrosinase; design: method as in ref 12 (Zheng et al.); conditions: L-tyrosine substrate; ref 12 (Zheng et al.); read-out: IC50, L-tyrosine oxidation (monophenolase); cited from earlier work
mushroom tyrosinase [3] = biological target: T1, mushroom tyrosinase; assay: Mushroom tyrosinase inhibitory assay, L-DOPA oxidation (diphenolase activity); assay type: biochemical; design: purchased Sigma-Aldrich Co. (St. Louis, MO, USA); conditions: L-DOPA substrate (diphenolase), 25 °C, pH 6.5, mean ± SEM of triplicate
Protocol: as §1

mushroom tyrosinase [4] = biological target: T1, mushroom tyrosinase; assay: Enzyme kinetic analysis with tyrosinase (Lineweaver-Burk and Dixon plots, L-tyrosine substrate); assay type: biochemical; conditions: for Inhibition Mode: Lineweaver–Burk plot, L-tyrosine substrate (monophenolase)
Protocol: Kinetic analysis was employed to verify the inhibitory activity of the active compounds and identify the type of inhibition. KG and MG were potent tyrosinase inhibitors as analyzed by Lineweaver–Burk and Dixon plots (Figure 3 and Figure 4). Different concentrations of the substrate (L-tyrosine, 1.0, 0.5, and 0.25 mM) along with the various concentrations of KG (10, 50, and 100 µM) and MG ([…]) were analyzed. […] The Ki values represent the concentrations required to form an enzyme inhibitor complex, so inhibitors with lower Ki values indicate greater tyrosinase inhibition activity for the development of prophylactic and therapeutic agents.
We observed the sample activity by decreasing the L-tyrosine (1.0, 0.5, and 0.25 mM) substrate concentration to determine the tyrosinase inhibitory mechanism. The reaction mixture consisted of a 20 µL test sample at the following test concentrations: 1.6, 8, and 16 µM for MG; 10, 50, and 100 µM for KG. Tyrosinase inhibition was determined at various concentrations of L-tyrosine substrate (1.0, 0.5, and 0.25 mM) in the absence or presence of the test compound concentrations (1.6, 8, and 16 µM for MG; 10, 50, and 100 µM for KG) using Lineweaver-Burk double reciprocal plots that determine enzyme kinetic parameters including Km and Vmax. The enzymatic procedures consisted of the previously described tyrosinase assay methods. The inhibition constant (Ki) was determined from the interpretation of Dixon plots.

tyrosinase = conditions: cited from earlier work
B16F10 cells = test system: B16F10 cells; design: method as in PMID 25819153; conditions: 150 µM; cited from earlier work
mushroom tyrosinase [5] = biological target: mushroom tyrosinase; design: method as in ref 13 (Chaita et al.); conditions: L-DOPA substrate; ref 13 (Chaita et al.); read-out: IC50, mushroom tyrosinase via the L-DOPA pathway; cited from earlier work
[6] = L-tyrosine substrate (monophenolase), 25 °C, pH 6.5, mean ± SEM of triplicate, read-out: IC50 (μM) Value L-Tyrosine
[7] = read-out: IC50 (μM) Value L-DOPA

- IC50 (mushroom tyrosinase [1]; [6]): 6.35 ± 0.45 µM
- IC50 (mushroom tyrosinase [3]; [7]): 106 µM
- Ki (mushroom tyrosinase [4]; Dixon plot, L-tyrosine substrate, read-out: Inhibition Constant (Ki)): 5.19 µM
- Inhibition Mode (mushroom tyrosinase [4]): Competitive
SMILES: CC1=C[C@H]2c3c(O)cc(-c4cc5ccc(O)cc5o4)cc3O[C@@]3(c4ccc(O)cc4O)Oc4cc(O)ccc4[C@H](C1)[C@@H]23 [Mulberrofuran G]
- IC50 (mushroom tyrosinase [2]): 17.5 µM

SMILES: Cc1cc2c3c(c1)-c1c(O)cc(-c4cc5ccc(O)cc5o4)cc1OC3(c1ccc(O)cc1O)Oc1cc(O)ccc1-2 (centres unmarked) [Albanol B]
- IC50 (μM) Value L-Tyrosine (mushroom tyrosinase [1]; L-tyrosine substrate (monophenolase), 25 °C, pH 6.5, mean ± SEM of triplicate): inactive
- IC50 (mushroom tyrosinase [1]; [6]): > 350 µM
- IC50 (μM) Value L-DOPA (mushroom tyrosinase [3]): inactive
- IC50 (mushroom tyrosinase [3]; [7]): > 350 µM

SMILES: O=C(O)/C=C/c1ccccc1 [Cinnamic acid]
- inhibition type toward tyrosinase (tyrosinase; interacted with secondary binding sites when catalytic pocket occupied with tropolone, ref 34 (Hassani et al.)): mixed type inhibitor

SMILES: O=c1cc(CO)occ1O [Kojic acid]
- inhibition type toward tyrosinase (tyrosinase): selective competitive inhibitor

SMILES: C=C1CC/C=C(\C)CC[C@@H]2[C@@H]1CC2(C)C [β-caryophyllene]
- intracellular tyrosinase activity (B16F10 cells): decreased

- IC50 (mushroom tyrosinase [1]; [6]): > 1000 µM
- IC50 (mushroom tyrosinase [3]; [7]): > 1000 µM
SMILES: CC1=CCCCC1 [1-Methyl-1-cyclohexene, reference compound]

SMILES: CC(C)=CCc1c(-c2ccc(O)cc2O)oc2c(C3C=C(C)CC(c4ccc(O)cc4O)C3C(=O)c3ccc(O)cc3O)c(O)cc(O)c2c1=O (centres unmarked) [Kuwanon G]
- IC50 (mushroom tyrosinase [5]): 27.2 µM
- IC50 (mushroom tyrosinase [1]): 67.6 ± 2.11 µM
- IC50 (mushroom tyrosinase [2]): > 200 µM
- IC50 (mushroom tyrosinase [3]; IC50 (μM) Value L-DOPA): 44 µM
- Ki (mushroom tyrosinase [4]): 18.7 µM
- Inhibition Mode (mushroom tyrosinase [4]): Competitive
